Results reported in patent US9695155B2, “Herbicidal substituted pyrimidinyloxy benzene compounds” (E. I. DU PONT DE NEMOURS AND COMPANY, priority 2013, dated 2017).

Legend:
[1] = tested on: barnyardgrass; assay: Test A preemergence; type: in vivo, Echinochloa crus-galli; conditions: for Plant response rating, Barnyardgrass: 125 g ai/ha; for Barnyardgrass plant response rating: 500 g ai/ha
Outline: (§1)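 Injury scores run from 0, no effect, to 100, complete control, judged by eye against untreated plants roughly 10 days after treatment. Chemicals carried a surfactant in a non-phytotoxic solvent and went onto loam–sand soil preemergence or onto one- to two-leaf seedlings postemergence.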

[2] = tested on: morningglory; assay: Test A preemergence; type: in vivo, Ipomoea spp.; conditions: for Morningglory plant response rating: 500 g ai/ha
Outline: as §1

[3] = tested on: pigweed; assay: Test A preemergence; type: in vivo, Amaranthus retroflexus; conditions: for Pigweed plant response rating: 500 g ai/ha
Outline: as §1

[4] = tested on: velvetleaf; assay: Test A preemergence; type: in vivo, Abutilon theophrasti
Outline: as §1

[5] = tested on: morningglory; assay: Test A postemergence; type: in vivo, Ipomoea spp.; conditions: 0 to 100 scale where 0 is no effect and 100 is complete control; for Plant response rating, Morningglory: 500 g ai/ha
Outline: as §1

[6] = tested on: wheat; assay: Test A postemergence; type: in vivo, Triticum aestivum; conditions: 0 to 100 scale where 0 is no effect and 100 is complete control; for Plant response rating, Wheat: 500 g ai/ha
Outline: as §1

[7] = tested on: Heteranthera limosa; assay: Test B flooded paddy test; type: in vivo; conditions: Flood, 250 g ai/ha; 0 to 100 scale where 0 is no effect and 100 is complete control
Outline: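 Compound added straight to paddy water, with pots kept flooded 3 cm above soil, on plants grown to the 2-leaf stage. Visual scoring 0-100 (100 = complete control) against untreated controls after 13 to 15 greenhouse days.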

[8] = tested on: blackgrass; assay: Test C postemergence; type: in vivo, Alopecurus myosuroides; conditions: for Blackgrass plant response rating / Plant response rating, Blackgrass: scale 0 to 100 (0 no effect, 100 complete control)
Outline: (§2)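 Visual ratings on a 0–100 scale (100 = complete control) were made versus untreated controls after 13–15 greenhouse days. Chemicals in a surfactant-containing non-phytotoxic solvent were applied either preemergence to seeds in loam–sand soil or postemergence to 1- to 4-leaf plants 2–18 cm tall.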

[9] = tested on: morningglory; assay: Test C postemergence; type: in vivo, Ipomoea coccinea
Outline: as §2

[10] = tested on: pigweed; assay: Test C postemergence; type: in vivo, Amaranthus retroflexus
Outline: as §2

[11] = tested on: ragweed; assay: Test C postemergence; type: in vivo, Ambrosia elatior
Outline: as §2

[12] = tested on: barnyardgrass; assay: Test C postemergence; type: in vivo, Echinochloa crus-galli; conditions: for Barnyardgrass plant response rating / Plant response rating, Barnyardgrass: scale 0 to 100 (0 no effect, 100 complete control)
Outline: as §2

[13] = tested on: kochia; assay: Test C postemergence; type: in vivo, Kochia scoparia; conditions: for Kochia plant response rating / Plant response rating, Kochia: scale 0 to 100 (0 no effect, 100 complete control)
Outline: as §2

[14] = tested on: wild oat; assay: Test C postemergence; type: in vivo, Avena fatua
Outline: as §2

[15] = tested on: velvetleaf; assay: Test C postemergence; type: in vivo, Abutilon theophrasti
Outline: as §2

[16] = 0 to 100 scale where 0 is no effect and 100 is complete control
[17] = 0 to 100 scale, 0 no effect, 100 complete control, approx. 10 days
[18] = 125 g ai/ha, 0 to 100 scale where 0 is no effect and 100 is complete control
[19] = 16 g ai/ha, postemergence, visual rating, 13 to 15 days
[20] = Postemergence, 31 g ai/ha, 13 to 15 days
[21] = Postemergence, 31 g ai/ha, scale 0 to 100 (0 no effect, 100 complete control), 13 to 15 days
[22] = Postemergence, 62 g ai/ha, scale 0 to 100 (0 no effect, 100 complete control)
[23] = 16 g ai/ha, postemergence, 0 is no effect, 100 is complete control
[24] = 31 g ai/ha, postemergence, visual rating, 13 to 15 days
[25] = 125 g ai/ha, postemergence, visual rating
[26] = 31 g ai/ha, postemergence, visual rating, scale 0 to 100 (0 no effect, 100 complete control), 13 to 15 days
[27] = 125 g ai/ha, postemergence, visual rating, scale 0 to 100 (0 no effect, 100 complete control)

## FC(F)Oc1cnn(-c2ccccc2Oc2ncc(Cl)cn2)c1 [Compound 98]
[1]; [16]
  Plant response rating, Barnyardgrass: 50
[1]; [17]
  Barnyardgrass plant response rating: 100
[2]; [18]
  Plant response rating, Morningglory: 60
[2]; [17]
  Morningglory plant response rating: 80
[3]; [18]
  Plant response rating, Pigweed: 100
[3]; [17]
  Pigweed plant response rating: 100
[4]; [18]
  Plant response rating, Velvetleaf: 90
[5]
  Plant response rating, Morningglory: 100
[6]
  Plant response rating, Wheat: 60
[7]
  Plant response rating, Ducksalad: 85
[8]; [19]
  Blackgrass plant response rating: 0
[8]; 125 g ai/ha, postemergence
  Plant response rating (0 to 100), Blackgrass: 20
[8]; [20]
  Plant response rating, Blackgrass: 5
[8]; Postemergence, 62 g ai/ha
  Plant response rating, Blackgrass: 30
[9]; 125 g ai/ha, postemergence
  Plant response rating (0 to 100), Morningglory: 85
[9]; [21]
  Plant response rating, Morningglory: 30
[9]; [22]
  Plant response rating, Morningglory: 65
[10]; 125 g ai/ha, postemergence
  Plant response rating (0 to 100), Pigweed: 75
[10]; [21]
  Plant response rating, Pigweed: 75
[10]; [22]
  Plant response rating, Pigweed: 75
[11]; 125 g ai/ha, postemergence
  Plant response rating (0 to 100), Ragweed: 40
[11]; [21]
  Plant response rating, Ragweed: 10
[11]; [22]
  Plant response rating, Ragweed: 30
[12]; [19]
  Barnyardgrass plant response rating: 5
[12]; 125 g ai/ha, postemergence
  Plant response rating (0 to 100), Barnyardgrass: 15
[12]; [20]
  Plant response rating, Barnyardgrass: 5
[12]; Postemergence, 62 g ai/ha
  Plant response rating, Barnyardgrass: 10
[13]; [19]
  Kochia plant response rating: 70
[13]; 125 g ai/ha, postemergence
  Plant response rating (0 to 100), Kochia: 98
[13]; [20]
  Plant response rating, Kochia: 80
[13]; Postemergence, 62 g ai/ha
  Plant response rating, Kochia: 90
[14]; 125 g ai/ha, postemergence
  Plant response rating (0 to 100), Oat, Wild: 20
[14]; [21]
  Plant response rating, Oat, Wild: 5
[14]; [22]
  Plant response rating, Oat, Wild: 10
[15]; 125 g ai/ha, postemergence
  Plant response rating (0 to 100), Velvetleaf: 90
[15]; [21]
  Plant response rating, Velvetleaf: 50
[15]; [22]
  Plant response rating, Velvetleaf: 70

## Fc1cnc(Oc2cccc(C(F)F)c2-n2cc(C(F)(F)F)cn2)nc1 [Compound 164]
[1]; [16]
  Plant response rating, Barnyardgrass: 90
  Barnyardgrass plant response rating: 100
[2]; 125 g ai/ha
  Morningglory plant response rating (0 to 100 scale): 80
[2]; [16]
  Morningglory plant response rating: 100
[3]; 125 g ai/ha
  Pigweed plant response rating (0 to 100 scale): 100
[3]; [16]
  Pigweed plant response rating: 100
[4]; 125 g ai/ha
  Velvetleaf plant response rating (0 to 100 scale): 100
[4]; 500 g ai/ha, 0 to 100 scale where 0 is no effect and 100 is complete control
  Velvetleaf plant response rating: 100
[5]; 125 g ai/ha
  Morningglory plant response rating: 80
[5]
  Plant response rating, Morningglory: 100
[6]; 125 g ai/ha
  Wheat plant response rating: 70
[6]
  Plant response rating, Wheat: 90
[7]
  Plant response rating, Ducksalad: 100
[8]; [23]
  Plant response rating (0 to 100), Blackgrass: 0
[8]; [24]
  Blackgrass plant response rating: 0
[8]; [25]
  Plant response rating, Blackgrass: 15
[8]; Postemergence, 62 g ai/ha
  Plant response rating, Blackgrass: 5
[9]; [23]
  Plant response rating (0 to 100), Morningglory: 35
[9]; [26]
  Morningglory plant response rating: 35
[9]; [27]
  Plant response rating, Morningglory: 80
[9]; [22]
  Plant response rating, Morningglory: 55
[10]; [23]
  Plant response rating (0 to 100), Pigweed: 50
[10]; [26]
  Pigweed plant response rating: 75
[10]; [27]
  Plant response rating, Pigweed: 80
[10]; [22]
  Plant response rating, Pigweed: 75
[11]; [23]
  Plant response rating (0 to 100), Ragweed: 20
[11]; [26]
  Ragweed plant response rating: 15
[11]; [27]
  Plant response rating, Ragweed: 55
[11]; [22]
  Plant response rating, Ragweed: 60
[12]; [23]
  Plant response rating (0 to 100), Barnyardgrass: 0
[12]; [24]
  Barnyardgrass plant response rating: 0
[12]; [25]
  Plant response rating, Barnyardgrass: 5
[12]; Postemergence, 62 g ai/ha
  Plant response rating, Barnyardgrass: 5
[13]; [23]
  Plant response rating (0 to 100), Kochia: 80
[13]; [24]
  Kochia plant response rating: 90
[13]; [25]
  Plant response rating, Kochia: 95
[13]; Postemergence, 62 g ai/ha
  Plant response rating, Kochia: 90
[14]; [23]
  Plant response rating (0 to 100), Oat, Wild: 0
[14]; [26]
  Oat, Wild plant response rating: 5
[14]; [27]
  Plant response rating, Oat, Wild: 15
[14]; [22]
  Plant response rating, Oat, Wild: 5
[15]; [26]
  Velvetleaf plant response rating: 15
[15]; [27]
  Plant response rating, Velvetleaf: 65
[15]; [22]
  Plant response rating, Velvetleaf: 40
